Among the data in patent publication US9340590B2 (priority 2011, dated 2016) are IC50 values, retold here.

What all share (assay): cell-based
Test [1] deals with hNav1.5 (Homo sapiens, UniProt Q14524). The following applies: IonWorks Quattro, use-dependent block, hNav1.5; read-out: IWQ Use Nav1.5. A general note: The patch-clamp technique gives a direct electrical read-out from membranes.
Test [2] deals with hNav1.3 (Homo sapiens, UniProt Q9NY46). As to conditions: IonWorks Quattro, use-dependent block, hNav1.3; read-out: IWQ Use Nav1.3.
Sequence of hNav1.3 (Q9NY46 whole entry, looked up): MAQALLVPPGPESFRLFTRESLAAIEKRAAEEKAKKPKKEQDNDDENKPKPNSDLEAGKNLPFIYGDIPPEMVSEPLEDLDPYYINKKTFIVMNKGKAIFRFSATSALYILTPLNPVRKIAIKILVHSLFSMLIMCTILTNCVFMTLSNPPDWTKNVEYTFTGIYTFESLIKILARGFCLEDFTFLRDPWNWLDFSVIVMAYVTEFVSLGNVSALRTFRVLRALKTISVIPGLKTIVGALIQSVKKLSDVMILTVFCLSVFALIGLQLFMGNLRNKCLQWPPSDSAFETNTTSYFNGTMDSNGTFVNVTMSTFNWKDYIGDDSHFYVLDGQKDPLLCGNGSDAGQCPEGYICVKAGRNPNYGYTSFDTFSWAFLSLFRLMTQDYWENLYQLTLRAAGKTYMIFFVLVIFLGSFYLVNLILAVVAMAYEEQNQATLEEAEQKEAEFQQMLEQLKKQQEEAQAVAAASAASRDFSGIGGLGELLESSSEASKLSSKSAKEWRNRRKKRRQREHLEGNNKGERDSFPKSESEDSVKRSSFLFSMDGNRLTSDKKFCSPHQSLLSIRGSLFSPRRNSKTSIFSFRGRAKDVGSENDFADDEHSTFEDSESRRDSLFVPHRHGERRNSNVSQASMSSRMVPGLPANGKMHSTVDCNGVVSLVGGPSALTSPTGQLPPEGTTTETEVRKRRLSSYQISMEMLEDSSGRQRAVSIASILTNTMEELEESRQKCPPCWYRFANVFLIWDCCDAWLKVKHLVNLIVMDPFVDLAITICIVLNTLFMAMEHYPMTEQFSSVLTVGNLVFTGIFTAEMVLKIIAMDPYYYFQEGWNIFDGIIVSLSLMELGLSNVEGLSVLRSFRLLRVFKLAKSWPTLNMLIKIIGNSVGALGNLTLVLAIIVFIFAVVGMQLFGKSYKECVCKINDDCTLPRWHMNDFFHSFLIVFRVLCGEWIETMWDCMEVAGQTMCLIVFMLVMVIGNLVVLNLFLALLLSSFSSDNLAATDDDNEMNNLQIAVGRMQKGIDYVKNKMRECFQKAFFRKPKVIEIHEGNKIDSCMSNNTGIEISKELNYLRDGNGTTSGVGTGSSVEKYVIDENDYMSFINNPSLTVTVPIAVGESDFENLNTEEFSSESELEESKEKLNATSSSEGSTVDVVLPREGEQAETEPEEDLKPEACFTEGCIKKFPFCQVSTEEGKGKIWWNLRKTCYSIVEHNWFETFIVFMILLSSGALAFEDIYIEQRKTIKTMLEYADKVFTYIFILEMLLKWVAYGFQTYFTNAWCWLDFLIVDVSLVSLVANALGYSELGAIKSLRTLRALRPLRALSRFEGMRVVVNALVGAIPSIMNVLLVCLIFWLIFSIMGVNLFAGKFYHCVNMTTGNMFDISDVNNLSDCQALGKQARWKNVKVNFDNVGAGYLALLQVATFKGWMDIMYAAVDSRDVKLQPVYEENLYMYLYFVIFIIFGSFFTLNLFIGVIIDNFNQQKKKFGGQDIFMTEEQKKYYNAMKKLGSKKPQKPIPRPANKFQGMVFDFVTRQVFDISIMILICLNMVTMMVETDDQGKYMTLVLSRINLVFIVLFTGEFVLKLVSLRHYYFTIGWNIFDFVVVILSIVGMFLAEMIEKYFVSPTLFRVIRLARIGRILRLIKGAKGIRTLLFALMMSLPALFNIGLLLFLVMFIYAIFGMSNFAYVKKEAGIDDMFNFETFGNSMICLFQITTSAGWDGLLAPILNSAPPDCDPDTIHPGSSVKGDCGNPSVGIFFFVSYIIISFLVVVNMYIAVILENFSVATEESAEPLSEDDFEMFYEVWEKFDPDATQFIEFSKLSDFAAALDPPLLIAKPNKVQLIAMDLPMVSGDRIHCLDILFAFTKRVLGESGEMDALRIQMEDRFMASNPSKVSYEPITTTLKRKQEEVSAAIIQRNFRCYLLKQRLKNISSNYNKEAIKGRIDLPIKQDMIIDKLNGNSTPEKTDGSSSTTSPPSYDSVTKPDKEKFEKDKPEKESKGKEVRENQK
Test [3] has as its target hNav1.7 (Homo sapiens, UniProt Q15858). The class given is cell-based. As to conditions: IonWorks Quattro, use-dependent block, hNav1.7; read-out: IWQ Use Nav1.7.

Positions of bridges follow the written chain, without caps; N, C: chain ends. Non-standard residues stand in square brackets, D forms with d. Residues, ends and D or L forms follow the SMILES beside them. 1Nal = N[C@@H](Cc1cccc2ccccc12)C(=O)O Bounds are passed on as bounds.

Sequence of hNav1.5 (Q14524 whole entry, looked up): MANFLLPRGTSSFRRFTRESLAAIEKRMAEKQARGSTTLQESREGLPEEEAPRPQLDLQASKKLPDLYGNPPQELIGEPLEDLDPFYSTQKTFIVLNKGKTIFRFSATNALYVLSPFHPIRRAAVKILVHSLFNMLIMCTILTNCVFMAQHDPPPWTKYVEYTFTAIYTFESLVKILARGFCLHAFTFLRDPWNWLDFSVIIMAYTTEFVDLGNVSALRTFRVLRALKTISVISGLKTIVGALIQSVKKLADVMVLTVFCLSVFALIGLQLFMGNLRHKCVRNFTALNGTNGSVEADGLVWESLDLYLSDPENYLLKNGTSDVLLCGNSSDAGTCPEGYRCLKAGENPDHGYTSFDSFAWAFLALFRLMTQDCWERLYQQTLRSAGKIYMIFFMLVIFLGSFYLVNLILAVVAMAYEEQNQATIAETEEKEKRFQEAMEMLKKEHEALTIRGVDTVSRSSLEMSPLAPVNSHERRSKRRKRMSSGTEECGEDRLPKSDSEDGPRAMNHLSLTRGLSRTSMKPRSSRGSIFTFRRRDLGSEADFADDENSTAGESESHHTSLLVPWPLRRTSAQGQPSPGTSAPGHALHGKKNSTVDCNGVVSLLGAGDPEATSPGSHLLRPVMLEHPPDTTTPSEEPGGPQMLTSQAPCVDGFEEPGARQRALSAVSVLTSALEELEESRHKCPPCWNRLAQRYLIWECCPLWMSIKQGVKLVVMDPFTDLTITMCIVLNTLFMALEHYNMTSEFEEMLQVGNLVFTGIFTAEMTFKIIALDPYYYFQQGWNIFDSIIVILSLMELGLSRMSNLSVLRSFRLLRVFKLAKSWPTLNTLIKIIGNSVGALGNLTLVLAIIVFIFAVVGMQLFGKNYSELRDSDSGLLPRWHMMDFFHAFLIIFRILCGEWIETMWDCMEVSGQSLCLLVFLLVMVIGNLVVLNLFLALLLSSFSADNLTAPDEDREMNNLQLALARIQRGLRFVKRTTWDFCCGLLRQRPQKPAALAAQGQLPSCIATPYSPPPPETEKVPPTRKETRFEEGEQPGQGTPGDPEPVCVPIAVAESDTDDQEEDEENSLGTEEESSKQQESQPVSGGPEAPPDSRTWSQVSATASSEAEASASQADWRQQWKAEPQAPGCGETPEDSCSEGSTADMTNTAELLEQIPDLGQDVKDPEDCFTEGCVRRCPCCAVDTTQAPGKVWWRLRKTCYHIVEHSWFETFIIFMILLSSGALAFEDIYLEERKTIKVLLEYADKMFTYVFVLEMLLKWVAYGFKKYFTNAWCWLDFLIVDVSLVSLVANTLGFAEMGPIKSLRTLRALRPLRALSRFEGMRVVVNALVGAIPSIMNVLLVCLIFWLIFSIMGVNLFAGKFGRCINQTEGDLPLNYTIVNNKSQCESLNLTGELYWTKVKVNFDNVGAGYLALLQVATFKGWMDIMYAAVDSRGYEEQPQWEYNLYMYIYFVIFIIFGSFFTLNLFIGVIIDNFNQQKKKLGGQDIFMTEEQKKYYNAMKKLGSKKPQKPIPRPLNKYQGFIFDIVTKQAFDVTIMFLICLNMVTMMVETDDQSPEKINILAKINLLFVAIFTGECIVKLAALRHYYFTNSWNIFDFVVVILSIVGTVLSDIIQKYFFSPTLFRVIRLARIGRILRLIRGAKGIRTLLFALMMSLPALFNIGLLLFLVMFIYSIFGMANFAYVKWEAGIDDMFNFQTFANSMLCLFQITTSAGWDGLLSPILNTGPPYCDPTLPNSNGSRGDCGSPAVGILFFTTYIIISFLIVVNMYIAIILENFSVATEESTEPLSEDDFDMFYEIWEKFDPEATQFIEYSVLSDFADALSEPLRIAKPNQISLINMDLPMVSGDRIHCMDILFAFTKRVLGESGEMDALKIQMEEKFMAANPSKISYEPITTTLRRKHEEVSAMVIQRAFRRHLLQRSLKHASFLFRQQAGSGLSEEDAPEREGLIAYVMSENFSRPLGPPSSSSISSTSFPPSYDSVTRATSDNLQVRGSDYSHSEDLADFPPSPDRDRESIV

Regarding `CC[C@H](C)[C@@H]1NC(=O)[C@@H]2CSSC[C@@H]3NC(=O)[C@H](C(C)C)NC(=O)[C@H](CC(C)C)NC(=O)[C@H](CC(N)=O)NC(=O)[C@@H]4CCCN4C(=O)[C@H](CCCNC(=N)N)NC(=O)[C@H](CSSC[C@H](NC(=O)[C@@H](N)CC(=O)O)C(=O)N[C@@H](CC(C)C)C(=O)NCC(=O)N[C@@H](C)C(=O)N[C@@H](CCSC)C(=O)N[C@@H](CCCNC(=N)N)C(=O)N[C@@H](CCCCN)C(=O)N2)NC(=O)[C@H](CSSC[C@@H](C(=O)N[C@@H](CCCCN)C(=O)N[C@@H](Cc2ccc(O)cc2)C(=O)N[C@H](C(=O)N[C@@H](Cc2ccccc2)C(N)=O)C(C)C)NC(=O)[C@H](Cc2c[nH]c4ccccc24)NC(=O)[C@H](CCC(=O)O)NC(=O)[C@H](Cc2c[nH]cn2)NC(=O)[C@H]([C@@H](C)O)NC(=O)[C@H](CCCNC(=N)N)NC(=O)[C@H](CO)NC3=O)NC(=O)[C@H](CCCCN)NC(=O)[C@H](CC(=O)O)NC(=O)[C@H](CC(N)=O)NC(=O)[C@H](CC(=O)O)NC(=O)[C@@H]2CCCN2C1=O` [compound 435], the IC50 in test [1] is 3.66 µM; in test [2], above 5 µM; in test [3], above 5 µM.
`CC[C@H](C)[C@@H]1NC(=O)[C@@H]2CSSC[C@@H]3NC(=O)[C@H](C(C)C)NC(=O)[C@H](CC(C)C)NC(=O)[C@H](CC(N)=O)NC(=O)[C@@H]4CCCN4C(=O)[C@H](CCCNC(=N)N)NC(=O)[C@H](CSSC[C@H](NC(=O)[C@@H](N)CC(=O)O)C(=O)N[C@@H](CC(C)C)C(=O)NCC(=O)N[C@@H](C)C(=O)N[C@@H](CCSC)C(=O)N[C@@H](CCC(=O)O)C(=O)N[C@@H](CCCCN)C(=O)N2)NC(=O)[C@H](CSSC[C@@H](C(=O)N[C@@H](CCCCN)C(=O)N[C@@H](Cc2ccc(O)cc2)C(=O)N[C@H](C(=O)N[C@@H](Cc2ccccc2)C(N)=O)C(C)C)NC(=O)[C@H](Cc2c[nH]c4ccccc24)NC(=O)[C@H](CCCCN)NC(=O)[C@H](Cc2c[nH]cn2)NC(=O)[C@H]([C@@H](C)O)NC(=O)[C@H](CCCNC(=N)N)NC(=O)[C@H](CO)NC3=O)NC(=O)[C@H](CCCCN)NC(=O)[C@H](CC(=O)O)NC(=O)[C@H](CC(N)=O)NC(=O)[C@H](CC(=O)O)NC(=O)[C@@H]2CCCN2C1=O` [compound 436] (H-DCLGAMEKCIPDNDKCCRPNLVCSRTHKWCKYVF-NH2; disulfide 2-17, 9-23, 16-30): the IC50 in test [1], in test [2] and in test [3] was above 5 µM in each case.
Consider `CC[C@H](C)[C@@H]1NC(=O)[C@@H]2CSSC[C@@H]3NC(=O)[C@H](C(C)C)NC(=O)[C@H](CC(C)C)NC(=O)[C@H](CC(N)=O)NC(=O)[C@@H]4CCCN4C(=O)[C@H](CCCNC(=N)N)NC(=O)[C@H](CSSC[C@H](NC(=O)[C@@H](N)CC(=O)O)C(=O)N[C@@H](CC(C)C)C(=O)NCC(=O)N[C@@H](C)C(=O)N[C@@H](CCSC)C(=O)N[C@@H](CCCNC(=N)N)C(=O)N[C@@H](CCCCN)C(=O)N2)NC(=O)[C@H](CSSC[C@@H](C(=O)N[C@@H](CCCCN)C(=O)N[C@@H](Cc2ccc(O)cc2)C(=O)N[C@H](C(=O)N[C@@H](Cc2ccccc2)C(N)=O)C(C)C)NC(=O)[C@H](CCC(=O)O)NC(=O)[C@H](CCCCN)NC(=O)[C@H](Cc2c[nH]cn2)NC(=O)[C@H]([C@@H](C)O)NC(=O)[C@H](CCCNC(=N)N)NC(=O)[C@H](CO)NC3=O)NC(=O)[C@H](CCCCN)NC(=O)[C@H](CC(=O)O)NC(=O)[C@H](CC(N)=O)NC(=O)[C@H](CC(=O)O)NC(=O)[C@@H]2CCCN2C1=O` [compound 437] (H-DCLGAMRKCIPDNDKCCRPNLVCSRTHKECKYVF-NH2; disulfide 2-17, 9-23, 16-30), for which the IC50 turned out to be 9.26 µM in test [1], 6.09 µM in test [2] and 11.9 µM in test [3].
The like results for `CC[C@H](C)[C@@H]1NC(=O)[C@@H]2CSSC[C@@H]3NC(=O)[C@H](C(C)C)NC(=O)[C@H](CC(C)C)NC(=O)[C@H](CC(N)=O)NC(=O)[C@@H]4CCCN4C(=O)[C@H](CCCNC(=N)N)NC(=O)[C@H](CSSC[C@H](NC(=O)[C@@H](N)CC(=O)O)C(=O)N[C@@H](CC(C)C)C(=O)NCC(=O)N[C@@H](C)C(=O)N[C@@H](CCSC)C(=O)N[C@@H](CCCNC(=N)N)C(=O)N[C@@H](CCCCN)C(=O)N2)NC(=O)[C@H](CSSC[C@@H](C(=O)N[C@@H](CCCCN)C(=O)N[C@@H](Cc2ccc(O)cc2)C(=O)N[C@H](C(=O)N[C@@H](Cc2ccccc2)C(N)=O)C(C)C)NC(=O)[C@H](Cc2c[nH]c4ccccc24)NC(=O)[C@H](CCCCN)NC(=O)[C@H](Cc2c[nH]cn2)NC(=O)[C@H]([C@@H](C)O)NC(=O)[C@H](CCC(=O)O)NC(=O)[C@H](CO)NC3=O)NC(=O)[C@H](CCCCN)NC(=O)[C@H](CC(=O)O)NC(=O)[C@H](CC(N)=O)NC(=O)[C@H](CC(=O)O)NC(=O)[C@@H]2CCCN2C1=O` [compound 438] were, in that order, 18.2 µM, 5.95 µM and 5.5 µM.
The like results for `CC[C@H](C)[C@@H]1NC(=O)[C@@H]2CSSC[C@@H]3NC(=O)[C@H](C(C)C)NC(=O)[C@H](CC(C)C)NC(=O)[C@H](CC(N)=O)NC(=O)[C@@H]4CCCN4C(=O)[C@H](CCCNC(=N)N)NC(=O)[C@H](CSSC[C@H](NC(=O)[C@@H](N)CC(=O)O)C(=O)N[C@@H](CC(C)C)C(=O)NCC(=O)N[C@@H](C)C(=O)N[C@@H](CCSC)C(=O)N[C@@H](CCCNC(=N)N)C(=O)N[C@@H](CCCCN)C(=O)N2)NC(=O)[C@H](CSSC[C@@H](C(=O)N[C@@H](CCCCN)C(=O)N[C@@H](Cc2ccc(O)cc2)C(=O)N[C@H](C(=O)N[C@@H](Cc2ccccc2)C(N)=O)C(C)C)NC(=O)[C@H](Cc2c[nH]c4ccccc24)NC(=O)[C@H](CCCCN)NC(=O)[C@H](Cc2c[nH]cn2)NC(=O)[C@H]([C@@H](C)O)NC(=O)[C@H](CCCNC(=N)N)NC(=O)[C@H](CO)NC3=O)NC(=O)[C@H](CCC(=O)O)NC(=O)[C@H](CC(=O)O)NC(=O)[C@H](CC(N)=O)NC(=O)[C@H](CC(=O)O)NC(=O)[C@@H]2CCCN2C1=O` [compound 439] (H-DCLGAMRKCIPDNDECCRPNLVCSRTHKWCKYVF-NH2; disulfide 2-17, 9-23, 16-30) were, in that order, 10.8 µM, 4.8 µM and 2.41 µM.
The like results for `CC[C@H](C)[C@@H]1NC(=O)[C@@H]2CSSC[C@@H]3NC(=O)[C@H](C(C)C)NC(=O)[C@H](CC(C)C)NC(=O)[C@H](CC(N)=O)NC(=O)[C@@H]4CCCN4C(=O)[C@H](CCCNC(=N)N)NC(=O)[C@H](CSSC[C@H](NC(=O)[C@@H](N)CC(=O)O)C(=O)N[C@@H](CC(C)C)C(=O)NCC(=O)N[C@@H](Cc4ccccc4)C(=O)N[C@@H](CCSC)C(=O)N[C@@H](CCCNC(=N)N)C(=O)N[C@@H](CCCCN)C(=O)N2)NC(=O)[C@H](CSSC[C@@H](C(=O)N[C@@H](CCCCN)C(=O)N[C@@H](Cc2ccc(O)cc2)C(=O)N[C@@H](Cc2cccc4ccccc24)C(=O)N[C@@H](Cc2ccccc2)C(N)=O)NC(=O)[C@H](Cc2c[nH]c4ccccc24)NC(=O)[C@H](CCCNC(=N)N)NC(=O)[C@H](Cc2c[nH]cn2)NC(=O)[C@H]([C@@H](C)O)NC(=O)[C@H](CCCNC(=N)N)NC(=O)[C@H](CO)NC3=O)NC(=O)[C@H](CCCCN)NC(=O)[C@H](CC(=O)O)NC(=O)[C@H](CC(N)=O)NC(=O)[C@H](CC(=O)O)NC(=O)[C@@H]2CCCN2C1=O` [compound 442] (H-DCLGFMRKCIPDNDKCCRPNLVCSRTHRWCKY[1Nal]F-NH2; disulfide 2-17, 9-23, 16-30) were, in that order, above 5 µM, 0.04 µM and 0.03 µM.
